Measurements: patent US4358602A, “Ebelactones and production thereof” (Zaidan Hojin Biseibutsu Kagaku Kenkyu Kao, priority 1980, dated 1982)
Values after ≈ are worked out from the molar mass of the structure shown.

Tests used:
[1] = molecular target: esterase preparation obtained from pig liver; test: Anti-esterase activity assay (modified Huggins and Lapides method); format: biochemical; conditions: substrate p-nitrophenyl acetate, pH 7.0, room temperature, 20 minutes
Protocol: Firstly, assay of ebelactone for its anti-esterase activity can be made by determining the potency to inhibit esterase according to a modification of the method of C. […] Thus, a commercially available esterase preparation obtained from pig liver (a product of Sigma Co., U.S.A.) is diluted with water to a 1000 folds volume, and the resulting esterase solution (0.025 ml) is admixed with 1 ml of 0.1 M phosphate buffered solution (pH 7.0) containing 0.06% "Triton X-100" (a trade name of an emulsifier consisting of a polyethyleneglycol alkylphenylether, a product of Rohm & Haas Co., U.S.A.) and 0.95 ml of water containing an ebelactone sample to be assayed, and the resulting mixed solution (1.975 ml) is admixed with 0.025 ml of a solution of 40 mM p-nitrophenyl acetate (the substrate) in methanol to start the reaction of p-nitrophenyl acetate with the esterase. After the enzymatic reaction is effected at room temperature for 20 minutes, absorbance (a) at 400 nm of the resulting reaction solution is measured. On the other hand, absorbance (b) at 400 nm of a control reaction solution containing no ebelactone is measured in the same way as above. Percent of inhibition to esterase is calculated according to the following equation:
Inhibition (%)=(b-a)/b×100

[2] = molecular target: T1, formylmethionine aminopeptidase prepared from rat liver (Rattus norvegicus, UniProt P13676); test: Anti-formylmethionine aminopeptidase activity assay; format: biochemical; conditions: rat liver enzyme, substrate N-formylmethionine β-naphthylamide, pH 7.8, 37° C., 25 minutes; read-out: ID50, dose giving 50% inhibition to formylmethionine aminopeptidase (converted)
T1 construct: Formylmethionineaminopeptidase employed is that prepared from rat liver; from tissue; host or cells: rat liver
T1 sequence (P13676 1-732): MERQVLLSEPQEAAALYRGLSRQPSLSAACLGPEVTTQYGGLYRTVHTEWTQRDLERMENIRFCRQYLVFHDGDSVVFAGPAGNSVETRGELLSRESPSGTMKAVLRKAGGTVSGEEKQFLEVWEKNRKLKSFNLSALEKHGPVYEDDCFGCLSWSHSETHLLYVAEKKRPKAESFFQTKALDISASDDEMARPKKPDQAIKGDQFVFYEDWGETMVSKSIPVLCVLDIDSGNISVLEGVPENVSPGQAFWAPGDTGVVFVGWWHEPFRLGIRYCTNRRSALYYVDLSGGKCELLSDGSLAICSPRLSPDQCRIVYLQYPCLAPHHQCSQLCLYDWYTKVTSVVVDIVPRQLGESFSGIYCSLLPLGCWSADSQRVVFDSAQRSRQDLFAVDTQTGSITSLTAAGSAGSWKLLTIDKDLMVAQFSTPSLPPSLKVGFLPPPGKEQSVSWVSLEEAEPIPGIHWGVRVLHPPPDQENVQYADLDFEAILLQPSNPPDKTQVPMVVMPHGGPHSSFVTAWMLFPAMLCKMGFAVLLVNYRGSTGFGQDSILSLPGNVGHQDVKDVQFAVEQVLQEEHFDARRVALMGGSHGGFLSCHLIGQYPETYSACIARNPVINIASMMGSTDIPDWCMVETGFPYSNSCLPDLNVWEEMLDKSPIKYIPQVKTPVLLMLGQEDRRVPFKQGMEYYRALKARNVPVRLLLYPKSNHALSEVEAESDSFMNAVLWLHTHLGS
Protocol: Further, assay of ebelactone for its anti-formylmethionineaminopeptidase can be made according to the following method. Thus, as the substrate solution is employed a solution of N-formylmethionine β-naphthylamide(as the substrate) in methanol containing 5% (w/v) of "Tween" 20 (a trade name of a non-ionic surface-active agent, a product of Atlas Powder Co., U.S.A.). Formylmethionineaminopeptidase employed is that prepared from rat liver. The substrate solution (0.005 ml), 0.5 ml of 0.1 M Tris-hydrochloric acid buffered solution (pH 7.8) and 0.495 ml of water containing an ebelactone sample to be assayed are mixed together to a total volume of […]. The reaction solution so obtained is further admixed with 0.05 ml of the enzyme solution, followed by effecting the enzymatic reaction at 37° C. for 25 minutes. […] After allowing to stand at ambient temperature for 15 minutes, absorbance (a) at 525 nm of the reaction solution is measured. On the other hand, adsorbance (b) at 525 nm of a control reaction solution obtained from the blank test is measured. Percent of inhibition to the formylmethionine aminopeptidase is calculated in a similar way to the above-mentioned method for determination of the potency for inhibition to esterase.

[3] = tested on: CDF1 mice immunized with sheep red blood cells (SRBC); test: Delayed Type Hypersensitivity (D.T.H.) response to SRBC in mice (cell-mediated immunity); format: in vivo; conditions: 24 hours after eliciting injection
[4] = tested on: Wister rats, carragheenin-induced footpad swelling; test: Suppression of rat footpad swelling caused by carragheenin; format: in vivo
Protocol: Tests were made to estimate the suppressive effect of ebelactone and esterastin (U.S. Pat. Nos. 4,189,438 and 4,242,453) on the swelling of rat footpad caused by injection of carragheenin when the test compounds were administered orally and intraperitoneally to the test animal, Wister rats (male, body weight:140 to 150 g). The test compound was dissolved in about 0.5 ml of ethanol with addition of one drop of a non-ionic surface-active agent "Tween" 80, and the test compound solution in ethanol was diluted with an aqueous gum arabi to prepare an aqueous suspension containing the test dose of ebelactone or esterastin. The test sample suspension so prepared was then administered orally or intraperitoneally to the rats. One hour later, 1% aqueous carragheenin was injected subcutaneously to the footpad to bring about inflammation. After the injection of carragheenin, the volume of the footpad was measured twice, namely at the end of 3 hours and at the end of 5 hours from the carragheenin injection. For control test, the ebelactone or esterastin was omitted in the above test. Degree (%) of suppression of swelling was calculated from the measured volumes of the inflammated footpad.

[5] = intraperitoneal, 30 mg/kg, 3 Hours after carragheenin
[6] = intraperitoneal, 30 mg/kg, 5 Hours after carragheenin
[7] = intraperitoneal, all dosages and all times, except 5 hours with 5 mg/kg and 3 hours with 10 mg/kg of ebelactone B
[8] = oral, 50 mg/kg, 3 Hours after carragheenin
[9] = oral, 50 mg/kg, 5 Hours after carragheenin

SMILES | ID50, dose giving 50% inhibition to esterase [1] [µg/mL] | IC50 [2] [nM] | Foodpad thickness ([3]; 0.5 mg/kg oral, control 8.1) [× 0.1 mm] | Degree (%) of suppression of inflammation [4, 5] [%] | Degree (%) of suppression of inflammation [4, 6] [%] | reduction in the degree of swelling as compared to the control test group [4, 7] | Degree (%) of suppression of swelling [4, 8] [%] | Degree (%) of suppression of swelling [4, 9] [%] | further results
CCC(C)C(O)C(C)C(=O)C(C)C=C(C)CC(C)C1OC(=O)C1C (stereo not drawn) [Ebelactone A, ebelactone A] | 0.056 (≈ 0.165 µM) | 236 | 12.2 | 45.9 | 18.5 | significant reduction in the degree of swelling |  |  | 
CCC(C)C(O)C(C)C(=O)C(C)C=C(C)CC(C)C1OC(=O)C1CC (stereo not drawn) [Ebelactone B, ebelactone B] | 0.00035 (≈ 0.000993 µM) | 56.7 | 14.1 | 50.6 | 20.9 | significant reduction in the degree of swelling | 11.6 | 7.8 | Foodpad thickness ([3]; 0.781 mg/kg intraperitoneal at immunization, control 7.4): 14.2 × 0.1 mm; Foodpad thickness ([3]; 3.125 mg/kg intraperitoneal at immunization, control 7.4): 13.6 × 0.1 mm; Foodpad thickness ([3]; 12.5 mg/kg intraperitoneal at immunization, control 7.4): 13.3 × 0.1 mm; Foodpad thickness ([3]; 50 mg/kg intraperitoneal at immunization, control 7.4): 12.2 × 0.1 mm; Degree (%) of suppression of inflammation ([4]; intraperitoneal, 5 mg/kg, 3 Hours after carragheenin): 17.1%; Degree (%) of suppression of inflammation ([4]; intraperitoneal, 5 mg/kg, 5 Hours after carragheenin): 8.8%; Degree (%) of suppression of inflammation ([4]; intraperitoneal, 10 mg/kg, 3 Hours after carragheenin): 9.1%; Degree (%) of suppression of inflammation ([4]; intraperitoneal, 10 mg/kg, 5 Hours after carragheenin): 10.0%; Degree (%) of suppression of swelling ([4]; oral, 10 mg/kg, 3 Hours after carragheenin): 11.2%; Degree (%) of suppression of swelling ([4]; oral, 10 mg/kg, 5 Hours after carragheenin): 8.2%; reduction in the degree of swelling as compared to the control test group ([4]; oral, 10 mg/kg, at 3 hours and 5 hours from carragheenin injection): significant reduction in the degree of swelling; reduction in the degree of swelling as compared to the control test group ([4]; oral, 50 mg/kg, at 3 hours from carragheenin injection): significant reduction in the degree of swelling; Degree (%) of suppression of swelling ([4]; oral, 100 mg/kg, 3 Hours after carragheenin): 7.0%; Degree (%) of suppression of swelling ([4]; oral, 100 mg/kg, 5 Hours after carragheenin): 9.6%; reduction in the degree of swelling as compared to the control test group ([4]; oral, 100 mg/kg, at 5 hours from carragheenin injection): significant reduction in the degree of swelling
CCCCCC=CCC=CCC(CC1OC(=O)C1CCCCCC)OC(=O)C(CC(N)=O)NC(C)=O (stereo not drawn) [Esterastin, esterastin, reference compound] |  |  |  | 31.1 | 28.1 |  | 10.3 | -3.0 | 
